Results on nine molecules are retold here after ChEMBL document CHEMBL2434896, “Carbonic anhydrase inhibitors. Synthesis of heterocyclic 4-substituted pyridine-3-sulfonamide derivatives and their inhibition of the human cytosolic isozymes I and II and transmembrane tumor-associated isozymes IX and XII” (Eur J Med Chem, 2013).

Activity calls are given as the source filed them. The rule behind the calls is not given here.

Assay type in all cases: functional
One assay concerns EKVX. Briefly: (§1) Growth inhibition of human EKVX cells at 10 uM after 48 hrs by sulforhodamine B assay.
The test system of a further assay is MDA-MB-435. Description: Growth inhibition of human MDA-MB-435 cells at 10 uM after 48 hrs by sulforhodamine B assay. To be noted: for inhibition of growth at 10 µM: MDA-MB-435, 48 h, read-out: GI.
A further assay deals with SNB-19. Description: Growth inhibition of human SNB19 cells at 10 uM after 48 hrs by sulforhodamine B assay. To be noted: for inhibition of growth at 10 µM: SNB-19, 48 h, read-out: GI. (In SRB staining, fixed cells bind dye roughly in proportion to their protein.)
The subject of the next assay is HOP-92. Briefly: Growth inhibition of human HOP92 cells at 10 uM after 48 hrs by sulforhodamine B assay. To be noted: for inhibition of growth at 10 µM: HOP-92, 48 h, read-out: GI.
A further assay concerns SK-MEL-5. Briefly: Growth inhibition of human SK-MEL-5 cells at 10 uM after 48 hrs by sulforhodamine B assay. The conditions noted are these: for inhibition of growth at 10 µM: SK-MEL-5, 48 h, read-out: GI.
The test system of the next assay is OVCAR-4. Description: Growth inhibition of human OVCAR4 cells at 10 uM after 48 hrs by sulforhodamine B assay. To be noted: for inhibition of growth at 10 µM: OVCAR-4, 48 h, read-out: GI.
For a further assay, the system named is SK-OV-3. Description: Growth inhibition of human SKOV3 cells at 10 uM after 48 hrs by sulforhodamine B assay. To be noted: for inhibition of growth at 10 µM: SK-OV-3, 48 h, read-out: GI.
Another assay has as its system KM12. Briefly: Growth inhibition of human KM12 cells at 10 uM after 48 hrs by sulforhodamine B assay. The conditions noted are these: for inhibition of growth at 10 µM: KM12, 48 h, read-out: GI.
The subject of a further assay is SF-295. Briefly: Growth inhibition of human SF295 cells at 10 uM after 48 hrs by sulforhodamine B assay. The conditions noted are these: for inhibition of growth at 10 µM: SF-295, 48 h, read-out: GI.
Assay [1] is described as follows: (§2) Growth inhibition of human NCI-ADR-RES cells at 10 uM after 48 hrs by sulforhodamine B assay. To be noted: read-out: GI.
The next assay relates to U-251. Briefly: Growth inhibition of human U251 cells at 10 uM after 48 hrs by sulforhodamine B assay. To be noted: for inhibition of growth at 10 µM: U-251, 48 h, read-out: GI.
A further assay concerns T47D. Description: Growth inhibition of human T47D cells at 10 uM after 48 hrs by sulforhodamine B assay. To be noted: for inhibition of growth at 10 µM: read-out: GI.
The next assay relates to BT-549. Briefly: Growth inhibition of human BT549 cells at 10 uM after 48 hrs by sulforhodamine B assay. To be noted: for inhibition of growth at 10 µM: BT-549, 48 h, read-out: GI.
The next assay deals with NCI-H226. Briefly: Growth inhibition of human NCI-H226 cells at 10 uM after 48 hrs by sulforhodamine B assay. To be noted: for inhibition of growth at 10 µM: NCI-H226, 48 h, read-out: GI.
Another assay concerns K562. Description: Growth inhibition of human K562 cells at 10 uM after 48 hrs by sulforhodamine B assay. To be noted: for inhibition of growth at 10 µM: K562, 48 h, read-out: GI.
A short description of assay [2]: Growth inhibition of human HCC2998 cells at 10 uM after 48 hrs by sulforhodamine B assay. The conditions noted are these: HCC 2998, 48 h, read-out: GI.
For a further assay, the system named is NCI/ADR-RES. The assay is described as §2.
A short description of assay [3]: as §1. To be noted: read-out: GI.
The nature of assay [4]: Growth inhibition of human Hs 578T cells at 10 uM after 48 hrs by sulforhodamine B assay. To be noted: read-out: GI.

With `NS(=O)(=O)c1cnccc1N1CCN(Cc2ccc3c(c2)OCO3)CC1`, the “growth inhibition (GI)” value in the assay on EKVX, in the assay on MDA-MB-435, with HOP-92, with SK-MEL-5, with OVCAR-4 and in the assay with SK-OV-3 was “inactive” each time. For the same molecule, the “growth inhibition (GI)” value with SF-295, in the assay on U-251, with NCI-H226 and with K562 was “inactive” each time. The inhibition of growth at 10 µM in the assay on SNB-19 amounted to 3%; with KM12, 1%; in assay [1] it was 3%; with T47D, 6%; with BT-549, 7%.

Turning to `CCc1cc(CC)n(-c2ccncc2S(N)(=O)=O)n1`, the “growth inhibition (GI)” value in the assay on EKVX, in the assay on MDA-MB-435, in the assay with SNB-19, in the assay on SK-MEL-5, in the assay on KM12 and in the assay on SF-295 was “inactive” throughout. For the same molecule, the “growth inhibition (GI)” value in the assay with NCI/ADR-RES, with T47D, in the assay with NCI-H226 and in the assay on K562 was “inactive” in each case. The inhibition of growth at 10 µM in the assay on HOP-92 came to 1%; in the assay on OVCAR-4 it was 4%; with SK-OV-3, 6%; in assay [2] it was 6%; in the assay on U-251, 1%; in the assay on BT-549, 2%.

For `NS(=O)(=O)c1cnccc1N1CCN(c2ccc(Cl)cc2)CC1`, the inhibition of growth at 10 µM is 11% in [3]; 1% in the assay with MDA-MB-435; 28% in the assay with SK-MEL-5; 28% in the assay with OVCAR-4; 14% in the assay on SF-295; 32% with T47D. Moreover, the inhibition of growth at 10 µM with NCI-H226 was determined as 13%; in the assay with K562, 28%. Further, the “growth inhibition (GI)” value with SNB-19, with SK-OV-3, in the assay on KM12, with NCI/ADR-RES and in the assay on BT-549 was “inactive” each time.

With `NS(=O)(=O)c1cnccc1N1CCN(c2ccc(Cl)c(Cl)c2)CC1`, the inhibition of growth at 10 µM came to 30% in [3]; 32% in the assay with MDA-MB-435; 5% in the assay with SNB-19; 89% with SK-MEL-5; 65% in the assay on OVCAR-4; 8% with SK-OV-3. Further, the inhibition of growth at 10 µM with KM12 was determined as 18%; with SF-295, 41%; in [2] it was 17%; in assay [1] it was 25%; in the assay with T47D, 72%; in the assay on BT-549, 27%. In addition, the inhibition of growth at 10 µM with NCI-H226 came to 28%; with K562, 65%.

Turning to `NS(=O)(=O)c1cnccc1N1CCN(c2ccccn2)CC1`, the inhibition of growth at 10 µM was found to be 1% in assay [3]; 2% in the assay with MDA-MB-435; 11% with HOP-92; 20% in [4]; 6% in assay [1]; 6% with U-251. The inhibition of growth at 10 µM in the assay on T47D is 8%; in the assay on BT-549, 6%; in the assay with NCI-H226, 5%; in the assay with K562 it was 4%. Further, the “growth inhibition (GI)” value with SNB-19, in the assay with SK-MEL-5, in the assay with OVCAR-4, in the assay on SK-OV-3, in the assay with KM12 and with SF-295 was “inactive” throughout.

On to `NS(=O)(=O)c1cnccc1N1CCC(Cc2ccccc2)CC1`, for which the “growth inhibition (GI)” value with EKVX, with MDA-MB-435, in the assay on SF-295, in the assay with NCI/ADR-RES and in the assay with U-251 was “inactive” each time. Besides, the inhibition of growth at 10 µM with SNB-19 is 2%; in the assay with HOP-92, 39%; in the assay on SK-MEL-5 it was 4%; in the assay with OVCAR-4, 2%; with SK-OV-3, 2%; with KM12, 2%. Also, the inhibition of growth at 10 µM in the assay with T47D was found to be 10%; in the assay on BT-549, 13%; in the assay on NCI-H226, 12%; in the assay on K562 it was 9%.

Take `COc1ccccc1N1CCN(c2ccncc2S(N)(=O)=O)CC1`: the inhibition of growth at 10 µM was determined as 3% in assay [3]; 2% in the assay on MDA-MB-435; 2% with OVCAR-4; 3% in the assay on SF-295; 1% with U-251; 2% in the assay with T47D. The inhibition of growth at 10 µM with NCI-H226 was determined as 3%; in the assay with K562, 9%. The “growth inhibition (GI)” value in the assay on SNB-19, in the assay with HOP-92, in the assay on SK-MEL-5, in the assay with SK-OV-3, with KM12 and with NCI/ADR-RES was “inactive” in each case. Moreover, the “growth inhibition (GI)” value with BT-549 is “inactive”.

Consider `Cc1ccc(C)c(N2CCN(c3ccncc3S(N)(=O)=O)CC2)c1`, for which the “growth inhibition (GI)” value in the assay with EKVX, with MDA-MB-435, with SNB-19, with OVCAR-4, in the assay on SK-OV-3 and in the assay on KM12 was “inactive” throughout. Moreover, in the assay on NCI/ADR-RES, the “growth inhibition (GI)” value is “inactive”. In addition, the inhibition of growth at 10 µM with SK-MEL-5 is 3%; with SF-295, 1%; in the assay on U-251, 20%; in the assay on T47D, 15%; with BT-549, 8%; with NCI-H226 it was 3%.

For the molecule `NS(=O)(=O)c1cnccc1N1CCN(c2ncccn2)CC1`, the “growth inhibition (GI)” value in the assay on EKVX, in the assay on MDA-MB-435, in the assay on HOP-92, with SK-MEL-5, in the assay with OVCAR-4 and in the assay with SK-OV-3 was “inactive” each time. For the same molecule, the “growth inhibition (GI)” value with KM12, in the assay on SF-295, in the assay with NCI/ADR-RES, in the assay with U-251, in the assay with T47D and in the assay with NCI-H226 was “inactive” in each case. In addition, in the assay with K562, the “growth inhibition (GI)” value is “inactive”. Also, the inhibition of growth at 10 µM in the assay with SNB-19 turned out to be 1%; in the assay with BT-549, 7%.
